{
  "source": "patent US6998422B2",
  "about": "“Lipid peroxide-lowering compositions” (Sankyo Company, Limited, priority 2000, dated 2006)",
  "system": "blood lipid peroxides",
  "assay": "Blood lipid peroxide levels in serum of beagle dogs after oral dosing for 11 days (Yagi's method, fluorometer)",
  "conditions": "relative ratio against averaged pre-dosing level (100), oral capsule once daily, pravastatin 2 mg/kg, mean of 5 dogs",
  "text": "Beagle dogs aged 5 months were purchased from Covance Research Products Inc. and used after 1 month of quarantine and acclimatisation breeding.\nThe required amounts of pravastatin or each component of the combination drug calculated from the body weight of each dog were weighed and filled in a gelatin capsule purchased from TORPAC Inc. Capsules filled with pravastatin were stocked in a refrigerator and those filled with combination drugs stocked at room temperature until use.\nThe combination drugs were filled in identical gelatin capsules.\nPravastatin or combination drug capsules were forcibly orally administered to each of the test animals once daily between 9:00 and 12:30. Animals were fasted for 2 or 3 hr prior to administration of the capsules.\nThe administration period was 11 successive days.\nBlood (10 mL) was collected from the superficial radial vein 3 or 4 days prior to administration (−3 or −4 days in the first week prior to capsule administration) and 4 and 8 days after administration of the capsule. Animals were fasted for approximately 18 hr prior to blood collection. Collected blood was placed in a test tube and left at room temperature for 0.5–1 hr and centrifuged (3,000 rpm, for 10 min). The obtained serum was used for assays of blood lipid peroxides according to Yagi's methods.\nA fluorometer (Hitachi, Ltd., F3000) was used for assay of the lipid peroxides.\nThe averaged value in each group was obtained from 5 animals a group.",
  "data": [
    {"smiles": "NCCS(=O)(=O)O", "note": "[Taurine alone, Taurine]", "values": [
      {"measurement": "Blood Lipid Peroxide Levels after administration, 4 days", "setting": "taurine 1,000 mg/kg", "value": 95.8},
      {"measurement": "Blood Lipid Peroxide Levels after administration, 8 days", "setting": "taurine 1,000 mg/kg", "value": 93.8}
    ]},
    {"smiles": "CC[C@H](C)C(=O)O[C@H]1C[C@H](O)C=C2C=C[C@H](C)[C@H](CC[C@@H](O)C[C@@H](O)CC(=O)O)[C@H]21", "note": "[Pravastatin alone, (+)-(3R,5R)-3,5-dihydroxy-7-[(1S,2S,6S,8S,8aR)-6-hydroxy-2-methyl-8-[(S)-2-methylbutyryloxy]-1,2,6,7,8,8a-hexahydro-1-naphthyl]heptanoate]", "values": [
      {"measurement": "Blood Lipid Peroxide Levels after administration, 4 days", "setting": "pantethine 300 mg/kg", "value": 110.8},
      {"measurement": "Blood Lipid Peroxide Levels after administration, 8 days", "setting": "pantethine 300 mg/kg", "value": 116.2},
      {"measurement": "Blood Lipid Peroxide Levels after administration, 4 days", "setting": "taurine 1,000 mg/kg", "value": 110.8},
      {"measurement": "Blood Lipid Peroxide Levels after administration, 8 days", "setting": "taurine 1,000 mg/kg", "value": 116.2}
    ]}
  ]
}
